Laboratory results: US5547941A, “Cyclic dinucleoside diphosphorothioates, related compounds and pharmaceutical compositions” (priority 1991, dated 1996)
Where a name gives a salt, the structure may show the parent alone.

Key:
HIV [1] = assay: Anti-HIV activity on the protein level: viral core protein p24 in supernatant of HIV-infected mitogen-stimulated human lymphocytes (ELISA); format: cell-based, HIV (in peripheral human lymphocytes); details: for HIV p24 in supernatant: 10 μM; for inhibition at 10 µM: Human immunodeficiency virus 1, Lymphocyte
Protocol: (§1) The compounds of the present invention were tested for antiviral activity on peripheral human lymphocytes isolated by density gradient centrifugation and stimulated with a mitogen.
(§2) Infection was performed with a standardized preparation of HIV and cells, cultured in the presence of the drug for 4 days.
Individual cultures were established to measure viral replication 2, 3 and 4 days after infection. The amount of viral core protein P 24, synthesized and released by the infected cells, was determined in the supernatant of treated and untreated cells on days 2, 3 and 4 by an Elisa.
(§3) The antiviral effect induced by the tested compounds was calculated from the inhibition of the evaluated parameters (i.e.: P24 or RNA) as compared with infected controls.

HIV [2] = assay: Anti-HIV activity on the RNA level: viral RNA synthesized by HIV-infected human lymphocytes (nucleic acid hybridization); format: cell-based, HIV (in peripheral human lymphocytes); details: for HIV RNA: 10 μM; for inhibition at 10 µM: Human immunodeficiency virus 1, Lymphocyte
Protocol: as §1, §2
The total amount of viral RNA synthesized by the infected lymphocytes was determined on day 2, 3 and 4 by a nucleic acid hybridization technique. By including a standard preparation of HIV-RNA, the amount of synthesized RNA was quantified.
as §3

[3] = test system: peripheral human lymphocytes; assay: Cytotoxicity (10 μM stated to be non cytotoxic); format: cell-based
[4] = test system: snake venom phosphodiesterase; assay: Enzymatic hydrolysis of the deprotected dinucleotide thiophosphates by snake venom phosphodiesterase (HPLC substrate disappearance); format: biochemical, Crotalus durissus; details: for Reduction in the area of the HPLC peak relatively to the control / Substrate change on enzymatic hydrolysis (in words): 37° C., pH 8
Protocol: The two samples XIIa and XIIb can independently undergo an enzymatic degradation by action of an exonuclease like snake venom phosphodiesterase following the disappearance of starting sample by HPLC along the time. […] Accordingly the configuration RP has to be assigned to XIIa and configuration SP to XIIb.
The relative susceptivity of the two substrates XIIa and XIIb to hydrolysis by snake venom phosphodiesterase was determined by incubating a solution (3 mM) of each substrate in Tris buffer (25 mM) containing MgCl2 (5 mM) at pH 8 with the enzyme (1 mg in 0.5 ml) (from Crotalus durissus) purchased from Boehringer and following the substrate disappearance by HPLC. In particular for each substrate a solution was prepared consisting of 700 μl of buffer, 200 μl of substrate solution plus 50 μl of enzyme solution. For each substrate a control was prepared with the same components and volumes except for the enzyme that was replaced by an equal volume of buffer. The four solutions (the two substrates and the two controls) were incubated at 37° C. taking aliquots from each solution at 0 time, 1 hour, 17 hours. Such aliquots were analyzed by HPLC (Whatman Partisphere C18, eluting with a linear gradient from 10% to 30% of methanol 0.1 M ammonium acetate) at 220 nm.

[5] = 72 h, Day 3, read-out: Inhibition of HIV replication on the protein level
[6] = 96 h, Day 4, read-out: Inhibition of HIV replication on the protein level
[7] = 72 h, Day 3, read-out: Inhibition of HIV replication on the RNA level
[8] = 96 h, Day 4, read-out: Inhibition of HIV replication on the RNA level

SMILES | HIV p24 in supernatant (HIV [1]; Day 2) [ng p24/ml] | HIV p24 in supernatant (HIV [1]; Day 3, control 2.2 ng p24/ml) [ng p24/ml] | HIV p24 in supernatant (HIV [1]; Day 4, control 21.5 ng p24/ml) [ng p24/ml] | inhibition at 10 µM (HIV [1]; [5]) [%] | inhibition at 10 µM (HIV [1]; [6]) [%] | HIV RNA (HIV [2]; Day 2) [pg RNA/ml] | HIV RNA (HIV [2]; Day 3, control 226 pg RNA/ml) [pg RNA/ml] | HIV RNA (HIV [2]; Day 4, control 612 pg RNA/ml) [pg RNA/ml] | inhibition at 10 µM (HIV [2]; [7]) [%] | inhibition at 10 µM (HIV [2]; [8]) [%] | Cytotoxicity [3] | Relative rate of enzymatic degradation ([4]; XIIa versus XIIb, snake venom phosphodiesterase) | Reduction in the area of the HPLC peak relatively to the control ([4]; after 1 hour) [%] | Reduction in the area of the HPLC peak relatively to the control ([4]; after 17 hours) [%] | Substrate change on enzymatic hydrolysis (in words) ([4]; after 1 hour) | Substrate change on enzymatic hydrolysis (in words) ([4]; after 17 hours)
Nc1ccn([C@H]2C[C@@H]3O[P@@](O)(=S)OC[C@H]4O[C@@H](n5ccc(N)nc5=O)C[C@@H]4O[P@](O)(=S)OC[C@H]3O2)c(=O)n1 [Compound IIb, Cyclo-2'-deoxy-(SP)-P-thiocytidylyl-(3'→5')-2'-deoxy-(RP)-P-thiocytidylyl-(3'→5'), sodium salt] | 0.0 | 0.0 | 3.7 | 100 | 83 | 0 | 0 | 266 | 100 | 56 | non cytotoxic | – | – | – | – | –
Nc1ccn([C@H]2C[C@@H]3O[P@](O)(=S)OC[C@H]4O[C@@H](n5ccc(N)nc5=O)C[C@@H]4O[P@](O)(=S)OC[C@H]3O2)c(=O)n1 [Compound IIa, Cyclo-2'-deoxy-(RP)-P-thiocytidylyl-(3'→5')-2'-deoxy-(RP)-P-thiocytidylyl-(3'→5'), sodium salt] | 0.0 | 0.1 | 17.1 | 97 | 20 | 0 | 188 | 465 | 17 | 24 | – | – | – | – | – | –
Nc1ccn([C@H]2C[C@H](O[P@](O)(=S)OC[C@H]3O[C@@H](n4ccc(N)nc4=O)C[C@@H]3O)[C@@H](CO)O2)c(=O)n1 [XIIa, 2'-deoxy-(RP)-P-thiocytidylyl-(3'→5')-2'-deoxycytidine sodium salt] | – | – | – | – | – | – | – | – | – | – | – | degraded much faster than the sample XIIb | 50 | 72 | – | –
Nc1ccn([C@H]2C[C@H](O[P@@](O)(=S)OC[C@H]3O[C@@H](n4ccc(N)nc4=O)C[C@@H]3O)[C@@H](CO)O2)c(=O)n1 [XIIb, 2'-deoxy-(SP)-P-thiocytidylyl-(3'→5 '-2-deoxycytidinesodium salt] | – | – | – | – | – | – | – | – | – | – | – | – | – | – | almost unchanged | almost unchanged
